One series deals with T1, hAChE (Homo sapiens, UniProt P22303).
T1 construct: purchased Sigma Aldrich
Description: biochemical. To be noted: read-out: % inhibition at 10 μM hAChE. The text has this:
(§1) Readings were made with Infinite M1000 Pro plate reader (Tecan, Cernusco s.N., Italy) and statistical regressions with Prism software (GraphPad Prism version 5.00 for Windows, GraphPad Software, San Diego, CA, USA).

The target in the next series is T2, hMAO A (Homo sapiens, UniProt P21397).
T2 construct: purchased Sigma Aldrich
T2 sequence (P21397 1-527): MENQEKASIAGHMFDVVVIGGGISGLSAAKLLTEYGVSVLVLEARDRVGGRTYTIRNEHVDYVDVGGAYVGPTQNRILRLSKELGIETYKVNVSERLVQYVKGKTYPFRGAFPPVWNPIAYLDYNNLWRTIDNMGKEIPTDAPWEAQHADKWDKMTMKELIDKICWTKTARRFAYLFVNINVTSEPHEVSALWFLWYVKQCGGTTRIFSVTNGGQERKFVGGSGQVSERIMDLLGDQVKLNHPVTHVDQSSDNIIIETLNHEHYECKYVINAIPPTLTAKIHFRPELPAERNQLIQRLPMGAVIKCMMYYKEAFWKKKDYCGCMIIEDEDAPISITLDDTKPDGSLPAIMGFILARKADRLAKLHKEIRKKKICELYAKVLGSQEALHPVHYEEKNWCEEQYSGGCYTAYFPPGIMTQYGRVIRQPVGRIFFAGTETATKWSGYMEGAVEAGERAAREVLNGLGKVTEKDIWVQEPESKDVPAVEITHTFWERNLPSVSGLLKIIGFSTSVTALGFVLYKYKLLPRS
Put plainly: biochemical.
Excerpt: as §1

Series [1] addresses T3, hMAO B (Homo sapiens, UniProt P27338).
T3 construct: purchased Sigma Aldrich
T3 sequence (P27338 1-520): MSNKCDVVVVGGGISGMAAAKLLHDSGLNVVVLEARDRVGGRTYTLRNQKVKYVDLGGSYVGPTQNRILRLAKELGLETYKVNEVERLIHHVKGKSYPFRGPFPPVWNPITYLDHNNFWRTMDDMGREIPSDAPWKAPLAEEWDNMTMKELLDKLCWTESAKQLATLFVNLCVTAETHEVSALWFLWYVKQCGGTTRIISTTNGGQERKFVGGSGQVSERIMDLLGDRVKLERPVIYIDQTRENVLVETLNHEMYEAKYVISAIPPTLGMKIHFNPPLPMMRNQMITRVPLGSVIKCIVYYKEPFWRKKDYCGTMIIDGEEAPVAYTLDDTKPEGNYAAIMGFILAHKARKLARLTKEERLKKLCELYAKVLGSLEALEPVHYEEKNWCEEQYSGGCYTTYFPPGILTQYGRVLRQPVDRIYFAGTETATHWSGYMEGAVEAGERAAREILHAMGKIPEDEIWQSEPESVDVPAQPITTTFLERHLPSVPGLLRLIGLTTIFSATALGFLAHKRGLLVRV
Description: biochemical. Type of series: biochemical.

Series [2] can be described thus: RP-HPLC lipophilicity index log k’. Conditions: MeOH/phosphate buffer pH 7.4; methanol/PBS 60:40 v/v. It counts as physicochemical. From the text: To investigate a possible correlation between MAO inhibitory potency and lipophilicity,[7] we calculated log P with three different programs (ChemDraw 15.0; ALOG PS 2.1; ChemSketch 2017, see Table S1 in Supporting Information) and compared the calculated values with experimental lipophilicity indexes as assessed by reversed‐phase (RP) HPLC in isocratic conditions for the majority of compounds. The log of capacity factors (log k’) measured by RP‐HPLC using a mixture of methanol/PBS (60 : 40, v/v) as the mobile phase are reported in Tables 1 and 2, along with Clog P values calculated with ChemDraw. These calculated lipophilicity descriptors correlated with the experimental log k’ values (n=13, r ^2=0.901) better than the other log Ps calculated by ALOG PS and ChemSketch computational tools (r ^2 equal 0.705 and 0.568, respectively). As shown by the scatter plots in Figure 4 and Figure S1 in Supporting Information, there is no evident correlation trend between MAO A/B inhibition data and lipophilicity calculated by the expert system implemented in ChemDraw for compounds achieving finite IC50 values.
Log k’ values (k’=(tr‐t0)/t0) and purity determinations were carried out using a Phenomenex Gemini C18 4.6×150 mm, with 3 μm size particles, built on a Waters double pump HPLC system in isocratic conditions. Injection volumes were 10 μL, flow rate was 0.5 mL/min, and detection was performed with UV (λ=254 and 370 nm). Samples were prepared by dissolving 0.1 mg/mL of the solute in 10 % v/v DMSO and 90 % v/v methanol. Retention times (tr) were measured at least from three separate injections, and dead time (t0) was the retention time of deuterated methanol. The mobile phase was filtered through a Supelco Nylon‐66 membrane 0.45 μm (Merck Life Science Srl, Milan, Italy) before use. For each reference compound, the average tr of three consecutive injections of 10 μL of sample was used to calculate the log k’ values. The eluent consisted of five different mixtures of methanol and PBS buffer 10 mM at pH 7.4, with methanol/buffer ratios ranging from 80 : 20 to 60 : 40 v/v.

Series [3] can be described thus: Hydrolytic stability in buffered solution (PBS pH 7.4, 37 °C). It counts as physicochemical. Conditions: 20 μM in 10 mM PBS pH 7.4, 37 °C, 6 h incubation. As for the experimental part:
The hydrolytic stability of some representative imino/hydrazone/hydrazide derivatives was determined in buffered aqueous media. […]. […]. The hydrolytic degradation of 9 in its starting reagents was confirmed by the comparison of the chromatograms of 9 and 2‐chloro‐4‐hydroxyaniline, obtained in the same chromatographic conditions (Figure 6B).
Stability studies in buffered solution were performed following an already described procedure,[23] on a Phenomenex C18 column (150×4.6 mm i.d., 3 μm particle size; Phenomenex, Castel Maggiore, Italy) using a mobile phase consisting of a mixture of methanol‐water (75 : 25 v/v, with aqueous formic acid 0.1 %). The used flow rate was 0.500 mL/min while the injection volume was 20 μL. Wavelength of UV‐Vis detector was adjusted at 254 nm. The chemical stability was evaluated in a phosphate buffer solution pH 7.4 (10 mM HPO4 ^2−/H2PO4 ^−; 100 mM NaCl) at 37 °C. Five different concentrations from 0.5 μM to 20 μM were studied in a 2 h time range (data not shown). Each concentration (0.5, 1, 5, 10 and 20 μM) was tested in triplicate starting from 3 different stocks solution (1 mM) prepared separately. The time range was extended to 6 h only for the samples at 20 μM concentration (Figure 6a).

In series [4] the target is T3, hMAO B. More on the design: method as in PMID 31775359. Conditions: cited from earlier work.
The next series has as its system SH-SY5Y cells. Put plainly: DCF-DA assay of ROS production induced by dopamine in SH-SY5Y cells. To be noted: 10 nM dopamine + 10 nM compound. It counts as cell-based, human. On the procedure:
The immortalized neuroblastoma cells are a widely used model for neuroprotection assays, while dopamine at a concentration of 10 nM acts as an inducer of oxidative stress,[8, 9] being metabolized by MAOs to form hydrogen peroxide. Once hydrolyzed and oxidized, DCF acts as the fluorescing probe of the oxidative stress (OS) state of cells. In the presence of an antioxidant, or even of a MAO inhibitor, ROS burden is lowered and DCF fluorescence decreased. […] Its activity is superimposable to that of phenelzine, a nonselective MAO inhibitor used as a positive control in this test.[10] The same experiment performed on dantrolene in our previous work gave similar results.[1]
Reagents for cell cultures were purchased from Life Technologies (ThermoFisher Scientific, Waltham, MA, USA) unless otherwise stated. […]
ROS production in SH‐SY5Y cell line was detected using Cellular Reactive Oxygen Species Detection Assay Kit ab186027 (Abcam, Cambridge, UK), as previously described.[1] […] After incubation and washing, DCF‐DA was added, the plate was incubated, washed again with PBS, and the fluorescence read every 15 min in a 60 min time interval at 535 nm (excitation at 485 nm) using the Tecan Infinite M1000 Pro plate reader.

T1 sequence (P22303 32-614): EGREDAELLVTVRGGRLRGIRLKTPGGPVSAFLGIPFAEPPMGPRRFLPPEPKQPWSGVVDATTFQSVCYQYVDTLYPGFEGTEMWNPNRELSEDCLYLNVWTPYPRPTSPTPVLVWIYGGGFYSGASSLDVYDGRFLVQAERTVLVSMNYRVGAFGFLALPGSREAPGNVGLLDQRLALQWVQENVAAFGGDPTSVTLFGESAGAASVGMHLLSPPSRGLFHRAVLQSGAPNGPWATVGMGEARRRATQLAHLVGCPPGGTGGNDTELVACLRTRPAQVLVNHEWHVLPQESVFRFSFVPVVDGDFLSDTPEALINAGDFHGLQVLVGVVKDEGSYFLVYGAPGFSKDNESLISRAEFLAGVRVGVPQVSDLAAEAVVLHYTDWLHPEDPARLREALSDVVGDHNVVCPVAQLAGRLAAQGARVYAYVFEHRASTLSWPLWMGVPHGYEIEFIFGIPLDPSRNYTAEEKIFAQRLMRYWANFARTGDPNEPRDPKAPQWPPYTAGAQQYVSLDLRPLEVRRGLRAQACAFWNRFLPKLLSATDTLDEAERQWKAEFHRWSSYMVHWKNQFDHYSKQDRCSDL

As for `CN1CCN(N=Cc2ccc(-c3ccc([N+](=O)[O-])cc3)o2)CC1` [Compound 3, N ‐(4‐methylpiperazin‐1‐yl)‐1‐(5‐(4‐nitrophenyl)furan‐2‐yl)methanimine], the inhibition at 10 µM on hAChE amounted to 44%. Besides, the results for the IC50 against hMAO A and against hMAO B [1] were 5.61 ± 1.11 µM and 3.15 ± 0.03 µM, respectively. Further, the “log k’ (logarithm of capacity factor, RP-HPLC)” value (“log k’” below) in series [2] was found to be 0.752. Besides, the “hydrolytic stability” value in series [3] is “substantial stability”.
As for `O=C1CN(/N=C/c2ccc(-c3ccc([N+](=O)[O-])cc3)o2)C(O)=N1` [DAN, Dantrolene], in series [2], the “log k’” value turned out to be 0.115. Moreover, the “Ki human MAO B” value at hMAO B [4] is reported as “low micromolar range”.
Regarding `N#Cc1ccc(-c2ccc(/C=N/c3ccc(O)cc3Cl)o2)cc1` [Compound 9], the inhibition at 10 µM at hAChE turned out to be 30%. Moreover, the IC50 against hMAO A is 3.46 ± 0.25 µM; on hMAO B [1], 0.68 ± 0.05 µM. Further, on hMAO B [1] (Michaelis-Menten / Lineweaver-Burk), the “mechanism of hMAO B inhibition” value is “competitive”. Further, the “selectivity for MAO B over MAO A” value at hMAO B [1] (from IC50 values) is 5 fold. Also, the Ki on hMAO B [1] (inhibition kinetics without preincubation, kynuramine substrate) was determined as 0.5 ± 0.06 µM. The “log k’” value in series [2] is 0.782. The “reduction of ROS oxidation of DCF” value in the series with SH-SY5Y cells is “effective in reducing ROS oxidation of DCF”. For the same molecule, the degradation percentage in series [3] was found to be 76%.
